Columns and labels:
[1] = in vivo; conditions: female, athymic nude, mouse, iv, total radioactivity; for tissue uptake at 6 h / tissue uptake at 20 h: 9.3 MBq
Procedure: PET scans and image analysis were performed using a microPET R4 rodent model scanner (Siemens Medical Solutions) as previously reported (J Nucl Med 2006;47:113-121 and J Nucl Med 2005;46:1707-1718, each of which is incorporated herein by reference for the corresponding discussion). Each mouse was tail-vein injected with about 3.7 MBq (100 μCi) of ^18F-FPRGD2 under isoflurane anesthesia. The 30-min dynamic scan (1×30 s, 4×1 min, 1×1.5 min, 4×2 min, 1×2.5 min, 4×3 min, total of 15 frames) was started 1 min after injection. Five min static PET images were also acquired at 1 h and 2 h post-injection (p.i.). The images were reconstructed by a 2-dimensional ordered-subsets expectation maximum (OSEM) algorithm and no correction was applied for attenuation or scatter.
PET scans and image analysis were performed using a microPET R4 rodent model scanner (Siemens Medical Solutions) as previously reported. For U87MG tumor model, mice (n=3) were tail-vein injected with about 3.7 MBq (100 μCi) of ^18F-FPRGD4 under isoflurane anesthesia and then subjected to a 30-min dynamic scan (1×30 s, 4×1 min, 1×1.5 min, 4×2 min, 1×2.5 min, 4×3 min, total of 15 frames) starting from 1 min p.i. Five min static PET images were also acquired at 1, 2, and 3 h p.i. The images were reconstructed by 2-dimensional ordered-subsets expectation maximum (OSEM) algorithm. No attenuation or scatter correction was applied. […] The 5-min static PET scans was then acquired at 30 min and 1 h p.i. Multiple time point static scans were also obtained for orthotopic MDA-MB-435, c-neu oncomouse, and subcutaneous DU145 tumor models after tail-vein injected with 3.7 MBq of ^18F-FPRGD4.
For each microPET scan, regions of interest (ROIs) were drawn over the tumor, normal tissue, and major organs by using vendor software (ASI Pro 5.2.4.0) on decay-corrected whole-body coronal images. The maximum radioactivity concentration (accumulation) within a tumor or an organ was obtained from mean pixel values within the multiple ROI volume, which were converted to counts/mL/min by using a conversion factor. Assuming a tissue density of 1 g/mL, the ROIs were converted to counts/g/min and then divided by the administered activity to obtain an imaging ROI-derived % ID/g. […]
PET scans and image analysis were performed using a microPET R4 rodent model scanner (Siemens Medical Solutions) as previously reported (J Nucl Med. 2005;46:1707-1718 and J Nucl Med. 2006;47:113-121, each of which is incorporated herein by reference for the corresponding discussion). About 9.3 MBq of ^64Cu-DOTA-RGD multimer was intravenously injected into each mouse under isoflurane anesthesia. Five minute static scans were acquired at 30 min, 1 h, 2 h, 6 h, and 20 h p.i. The images were reconstructed by a 2-dimensional ordered-subsets expectation maximum (OSEM) algorithm and no correction was applied for attenuation and scatter. For each microPET scan, regions of interest (ROIs) were drawn over the tumor, normal tissue, and major organs on decay-corrected whole-body coronal images. The radioactivity concentration (accumulation) within a tumor was obtained from the maximum value within the multiple ROIs and then converted to % ID/g.
PET scans and image analysis were performed using a microPET R4 rodent model scanner (Siemens Medical Solutions) as previously reported (J Nucl Med. 2006;47:113-21 and J Nucl Med. 2005;46:1707-18, which is incorporated herein by reference for the corresponding discussion). […] The 60-min dynamic scan (5×1 min, 10×3 min, 5×5 min, total of 20 frames) was started 1 min after injection. A 2 h time point static scan was also acquired after the 60 min dynamic scan. Five min static PET images were also acquired separately at 30 min, 1 h and 2 h time points post-injection (p.i.) for another set of tumor-bearing mice (n=3/tracer). The images were reconstructed by a 2-dimensional ordered-subsets expectation maximum (OSEM) algorithm and no correction was necessary for attenuation or scatter correction. […]

[2] = in vivo; conditions: female, athymic nude, mouse, total radioactivity
Procedure: All mice were sacrificed and dissected at 20 h post-injection (p.i.) of the tracer. Blood, U87MG tumor, major organs and tissues were collected and wet weighed. The radioactivity in the tissue was measured using a γ-counter (Packard). The results were presented as percentage injected dose per gram of tissue (% ID/g).

[3] = in vivo; conditions: c-neu oncomouse (MMTV/c-neu transgenic), mouse, iv, total radioactivity; for tissue uptake at 20 h: 9.3 MBq
Procedure: All animal experiments were performed under a protocol approved by Stanford's Administrative Panel on Laboratory Animal Care. […] The c-neu oncomouse (Charles River Laboratories, Charles River, Canada) is a spontaneous tumor-bearing model that carries an activated c-neu oncogene driven by a mouse mammary tumor virus (MMTV) promoter (Cell 1988;54:105-115, which is incorporated herein by reference for the corresponding discussion). Transgenic mice uniformly expressing the MMTV/c-neu gene develop mammary adenocarcinomas between 4 and 8 months postpartum that involve the entire epithelium in each gland. […] Each mouse was tail-vein injected with about 3.7 MBq (100 μCi) of ^18[…]2 under isoflurane anesthesia. The 30-min dynamic scan (1×30 s, 4×1 min, 1×1.5 min, 4×2 min, 1×2.5 min, 4×3 min, total of 15 frames) was started 1 min after injection. Five min static PET images were also acquired at 1 h and 2 h post-injection (p.i.). The images were reconstructed by a 2-dimensional ordered-subsets expectation maximum (OSEM) algorithm and no correction was applied for attenuation or scatter. […] Animal procedures were performed according to a protocol approved by the Stanford University Institutional Animal Care and Use Committee. […] The c-neu oncomouse (Charles River Laboratories, Charles River, Canada) is a spontaneous tumor-bearing model that carries an activated c-neu oncogene driven by a mouse mammary tumor virus (MMTV) promoter (Cell. 1988;54:105-115, which is incorporated herein by reference for the corresponding discussion). Transgenic mice uniformly expressing the MMTV/c-neu gene develop mammary adenocarcinomas between 4 and 8 months postpartum that involve the entire epithelium in each gland. […] PET scans and image analysis were performed using a microPET R4 rodent model scanner (Siemens Medical Solutions) as previously reported. […] Five min static PET images were also acquired at 1, 2, and 3 h p.i. The images were reconstructed by 2-dimensional ordered-subsets expectation maximum (OSEM) algorithm. No attenuation or scatter correction was applied. […] The 5-min static PET scans was then acquired at 30 min and 1 h p.i. […] Animal procedures were performed according to a protocol approved by Stanford University Institutional Animal Care and Use Committee. […] Transgenic mice uniformly expressing the MMTV/c-neu gene develop mammary adenocarcinomas (4 to 8 months postpartum) that involve the entire epithelium in each gland. […] Five minute static scans were acquired at 30 min, 1 h, 2 h, 6 h, and 20 h p.i. […] The radioactivity concentration (accumulation) within a tumor was obtained from the maximum value within the multiple ROIs and then converted to % ID/g.

[4] = system: rat myocardial infarction; assay: microPET imaging of rat myocardial infarction; type: in vivo; conditions: scan 1 h after injection
From the text: Induction of MI was done as previously described by our laboratory. Adult female Sprague-Dawley rats (weight 150-200 g; Charles River Laboratories, Wilmington, Mass.) were used for this study. […] The anesthesia was then maintained with isoflurane (2%). MI was induced by ligation of the left anterior descending coronary artery 2 to 3 mm from the tip of the left auricle with a 7-0 polypropylene suture. […] In the sham operated animals, a suture was placed in the myocardium (without ligating the left coronary artery). Animals were anesthetized with isofluorane (2%) and injected with approximately 1 mCi (37 MBq) of ^64Cu-DOTA-[…]2) via the tail vein and allowed to recover. […] At the time of scanning, animals were anesthesized with isofluorane (2%) and prone positioned on the microPET Concorde R4 rodent model scanning gantry (Siemens A G, Malvern, Pa.). The scanner has a computer-controlled bed and 10.8-cm transaxial and 8-cm axial fields of view (FOV). […] It has no septa and operates exclusively in the 3-dimensional list mode. A 15 minute static acquisition was performed with the mid thorax in the center of the field of view (FOV), and images reconstructed using a filtered back projection algorithm.

[5] = 10 mg/kg, U87MG tumor uptake with blocking

SMILES | tissue uptake at 2 h [1, 5] [%ID/g] | tissue uptake at 6 h ([1]; U87MG tumor uptake) [%ID/g] | tissue uptake at 20 h ([1]; U87MG tumor uptake) [%ID/g] | tissue uptake at 0.5 h ([1]; U87MG tumor uptake) [%ID/g] | tissue uptake at 1 h ([1]; U87MG tumor uptake) [%ID/g] | tissue uptake at 2 h ([1]; U87MG tumor uptake) [%ID/g] | tissue uptake at 20 h [2] [%ID/g] | tissue uptake at 20 h [3] [%ID/g] | tissue uptake at 1 h [3] [%ID/g] | myocardial tracer uptake after MI induction [4]
N=C(N)NCCC[C@@H]1NC(=O)[C@H](CCCCNC(=O)CC[C@H](NC(=O)CC[C@H](NC(=O)CC[C@H](NC(=O)CN2CCN(CC(=O)O)CCN(CC(=O)O)CCN(CC(=O)O)CC2)C(=O)N[C@@H](CCC(=O)N[C@@H](CCC(=O)NCCCC[C@@H]2NC(=O)[C@@H](Cc3ccc(O)cc3)NC(=O)[C@H](CC(=O)O)NC(=O)CNC(=O)[C@H](CCCNC(=N)N)NC2=O)C(=O)NCCCC[C@@H]2NC(=O)[C@@H](Cc3ccc(O)cc3)NC(=O)[C@H](CC(=O)O)NC(=O)CNC(=O)[C@H](CCCNC(=N)N)NC2=O)C(=O)N[C@@H](CCC(=O)NCCCC[C@@H]2NC(=O)[C@@H](Cc3ccc(O)cc3)NC(=O)[C@H](CC(=O)O)NC(=O)CNC(=O)[C@H](CCCNC(=N)N)NC2=O)C(=O)NCCCC[C@@H]2NC(=O)[C@@H](Cc3ccc(O)cc3)NC(=O)[C@H](CC(=O)O)NC(=O)CNC(=O)[C@H](CCCNC(=N)N)NC2=O)C(=O)N[C@@H](CCC(=O)NCCCC[C@@H]2NC(=O)[C@@H](Cc3ccc(O)cc3)NC(=O)[C@H](CC(=O)O)NC(=O)CNC(=O)[C@H](CCCNC(=N)N)NC2=O)C(=O)NCCCC[C@@H]2NC(=O)[C@@H](Cc3ccc(O)cc3)NC(=O)[C@H](CC(=O)O)NC(=O)CNC(=O)[C@H](CCCNC(=N)N)NC2=O)C(=O)NCCCC[C@@H]2NC(=O)[C@@H](Cc3ccc(O)cc3)NC(=O)[C@H](CC(=O)O)NC(=O)CNC(=O)[C@H](CCCNC(=N)N)NC2=O)NC(=O)[C@@H](Cc2ccc(O)cc2)NC(=O)[C@H](CC(=O)O)NC(=O)CNC1=O [^64Cu-DOTA-RGD octamer, metal not drawn] | 1.7 ± 0.2 | 10.5 ± 0.7 | 10.3 ± 1 | 11.7 ± 0.7 | 10.6 ± 0.7 | 10.6 ± 0.3 | 27 ± 3.5 | 6.6 ± 1.5 | 8.9 ± 2.1 | –
N=C(N)NCCC[C@@H]1NC(=O)[C@H](CCCCNC(=O)CC[C@H](NC(=O)CC[C@H](NC(=O)CN2CCN(CC(=O)O)CCN(CC(=O)O)CCN(CC(=O)O)CC2)C(=O)N[C@@H](CCC(=O)NCCCC[C@@H]2NC(=O)[C@@H](Cc3ccc(O)cc3)NC(=O)[C@H](CC(=O)O)NC(=O)CNC(=O)[C@H](CCCNC(=N)N)NC2=O)C(=O)NCCCC[C@@H]2NC(=O)[C@@H](Cc3ccc(O)cc3)NC(=O)[C@H](CC(=O)O)NC(=O)CNC(=O)[C@H](CCCNC(=N)N)NC2=O)C(=O)NCCCC[C@@H]2NC(=O)[C@@H](Cc3ccc(O)cc3)NC(=O)[C@H](CC(=O)O)NC(=O)CNC(=O)[C@H](CCCNC(=N)N)NC2=O)NC(=O)[C@@H](Cc2ccc(O)cc2)NC(=O)[C@H](CC(=O)O)NC(=O)CNC1=O [^64Cu-DOTA-RGD tetramer, ^64Cu-DOTA-E{E[c(RGDyK)]2}2, metal not drawn] | 2.2 ± 0.1 | 7.7 ± 1.6 | 6.4 ± 0.7 | 10.3 ± 1.6 | 9.6 ± 1.4 | 8.6 ± 1 | 5 ± 0.7 | 3.6 ± 0.4 | 4.4 ± 0.9 | occurs in areas supplied by the ligated coronary artery
